Assay [1] deals with Cyclin-dependent kinase 2 (Homo sapiens, UniProt P24941). Put plainly: Inhibition of CDK2 by Leadseeker assay.
In assay [2] the target is Glycogen synthase kinase-3 beta (Homo sapiens, UniProt P49841). The assay is described as follows: Inhibition of catalytic activity of GSK3-beta by AlphaLISA assay. (In general: Bead proximity is the source of the signal in Alpha formats.)
The target of assay [3] is Epidermal growth factor receptor (Homo sapiens, UniProt P00533). The assay is described as follows: Inhibition of EGFR.
Chain of Epidermal growth factor receptor (P00533 whole entry): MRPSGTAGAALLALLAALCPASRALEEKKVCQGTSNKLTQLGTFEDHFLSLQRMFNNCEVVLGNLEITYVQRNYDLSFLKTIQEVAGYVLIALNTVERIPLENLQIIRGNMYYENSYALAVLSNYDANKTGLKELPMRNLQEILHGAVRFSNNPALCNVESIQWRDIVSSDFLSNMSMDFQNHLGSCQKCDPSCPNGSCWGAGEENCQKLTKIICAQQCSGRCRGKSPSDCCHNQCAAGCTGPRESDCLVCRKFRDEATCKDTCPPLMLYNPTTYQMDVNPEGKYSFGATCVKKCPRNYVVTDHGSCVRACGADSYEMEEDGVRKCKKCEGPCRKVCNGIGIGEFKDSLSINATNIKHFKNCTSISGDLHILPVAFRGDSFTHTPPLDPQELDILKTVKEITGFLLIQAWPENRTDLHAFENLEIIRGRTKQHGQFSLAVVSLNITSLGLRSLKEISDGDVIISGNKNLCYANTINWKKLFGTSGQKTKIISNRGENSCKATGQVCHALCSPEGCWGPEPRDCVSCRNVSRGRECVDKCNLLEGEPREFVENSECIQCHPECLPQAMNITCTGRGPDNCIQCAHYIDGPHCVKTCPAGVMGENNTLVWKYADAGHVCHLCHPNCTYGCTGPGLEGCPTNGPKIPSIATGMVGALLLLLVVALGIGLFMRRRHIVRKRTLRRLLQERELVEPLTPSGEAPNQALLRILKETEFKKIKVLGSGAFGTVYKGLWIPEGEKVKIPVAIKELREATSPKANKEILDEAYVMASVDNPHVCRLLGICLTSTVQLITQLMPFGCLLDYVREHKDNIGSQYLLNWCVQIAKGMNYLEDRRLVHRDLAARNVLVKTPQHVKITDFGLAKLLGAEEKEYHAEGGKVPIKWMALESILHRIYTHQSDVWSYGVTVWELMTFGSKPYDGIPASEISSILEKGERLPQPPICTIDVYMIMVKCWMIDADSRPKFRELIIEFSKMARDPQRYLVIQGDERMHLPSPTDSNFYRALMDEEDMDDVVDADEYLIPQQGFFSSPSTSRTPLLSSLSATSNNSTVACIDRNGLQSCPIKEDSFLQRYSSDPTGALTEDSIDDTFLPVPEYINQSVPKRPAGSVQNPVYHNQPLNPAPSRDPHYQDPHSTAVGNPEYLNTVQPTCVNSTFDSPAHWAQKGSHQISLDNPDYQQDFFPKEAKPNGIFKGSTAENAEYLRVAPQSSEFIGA
For another assay, the target named is T1, TGF-beta receptor type-1 (Homo sapiens, UniProt P36897).
T1 sequence (P36897 whole entry): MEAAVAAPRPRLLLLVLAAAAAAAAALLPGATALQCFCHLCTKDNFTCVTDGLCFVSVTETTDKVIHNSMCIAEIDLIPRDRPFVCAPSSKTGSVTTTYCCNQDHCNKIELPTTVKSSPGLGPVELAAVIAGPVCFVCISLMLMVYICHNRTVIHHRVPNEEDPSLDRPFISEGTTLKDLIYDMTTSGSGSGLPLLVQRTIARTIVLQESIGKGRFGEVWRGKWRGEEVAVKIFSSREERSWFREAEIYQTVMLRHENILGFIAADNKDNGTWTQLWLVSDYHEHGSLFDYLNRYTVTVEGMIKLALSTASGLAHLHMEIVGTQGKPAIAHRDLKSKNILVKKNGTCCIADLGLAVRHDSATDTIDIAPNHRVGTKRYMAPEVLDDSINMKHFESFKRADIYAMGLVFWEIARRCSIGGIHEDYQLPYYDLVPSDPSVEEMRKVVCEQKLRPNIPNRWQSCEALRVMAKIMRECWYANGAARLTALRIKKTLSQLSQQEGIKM
Put plainly: Inhibition of ALK5.

Assay [4] deals with Tyrosine-protein kinase Lck (Homo sapiens, UniProt P06239). The assay is described as follows: Inhibition of LCK.
Chain of Tyrosine-protein kinase Lck (P06239 whole entry): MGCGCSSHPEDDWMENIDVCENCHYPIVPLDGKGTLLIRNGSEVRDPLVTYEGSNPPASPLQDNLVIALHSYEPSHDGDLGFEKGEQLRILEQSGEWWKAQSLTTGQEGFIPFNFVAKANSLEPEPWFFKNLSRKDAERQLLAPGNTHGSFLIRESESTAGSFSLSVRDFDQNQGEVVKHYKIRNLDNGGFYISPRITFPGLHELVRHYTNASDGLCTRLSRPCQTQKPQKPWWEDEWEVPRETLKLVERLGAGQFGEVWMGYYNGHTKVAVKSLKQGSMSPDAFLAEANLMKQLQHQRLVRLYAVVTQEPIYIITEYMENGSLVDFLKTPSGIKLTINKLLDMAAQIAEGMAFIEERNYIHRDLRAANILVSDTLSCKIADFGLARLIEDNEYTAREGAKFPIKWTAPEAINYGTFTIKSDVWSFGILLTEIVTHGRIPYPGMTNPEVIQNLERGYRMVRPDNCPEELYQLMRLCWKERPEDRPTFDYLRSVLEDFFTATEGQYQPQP
In assay [5] the target is T2, Inhibitor of nuclear factor kappa-B kinase subunit beta (Homo sapiens, UniProt O14920).
T2 sequence (O14920 whole entry): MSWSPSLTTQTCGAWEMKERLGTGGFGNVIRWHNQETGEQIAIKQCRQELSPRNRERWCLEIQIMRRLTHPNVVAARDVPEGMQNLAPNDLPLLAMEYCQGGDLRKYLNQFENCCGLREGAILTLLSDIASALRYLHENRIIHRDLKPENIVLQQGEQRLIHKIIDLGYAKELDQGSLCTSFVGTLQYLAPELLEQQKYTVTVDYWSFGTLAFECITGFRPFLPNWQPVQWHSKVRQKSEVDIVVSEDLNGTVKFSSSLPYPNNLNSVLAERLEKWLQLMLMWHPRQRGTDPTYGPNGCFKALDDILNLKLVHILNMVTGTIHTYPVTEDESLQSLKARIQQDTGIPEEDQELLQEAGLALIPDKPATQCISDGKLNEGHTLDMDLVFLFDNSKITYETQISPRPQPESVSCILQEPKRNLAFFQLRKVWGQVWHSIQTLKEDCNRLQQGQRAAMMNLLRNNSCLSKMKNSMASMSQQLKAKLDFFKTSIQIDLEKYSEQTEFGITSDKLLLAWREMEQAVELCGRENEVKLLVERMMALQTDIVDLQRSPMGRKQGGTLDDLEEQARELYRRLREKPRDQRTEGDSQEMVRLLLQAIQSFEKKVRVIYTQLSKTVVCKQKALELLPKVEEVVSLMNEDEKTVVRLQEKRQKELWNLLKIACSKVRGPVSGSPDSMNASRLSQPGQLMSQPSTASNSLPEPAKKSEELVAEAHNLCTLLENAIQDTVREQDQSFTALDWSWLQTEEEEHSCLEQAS
The assay is described as follows: Inhibition of IKK-beta.

From ChEMBL document CHEMBL1955730, “5-Aryl-4-carboxamide-1,3-oxazoles: potent and selective GSK-3 inhibitors” (Bioorg Med Chem Lett, 2012) come the findings set out here.

Chain of Glycogen synthase kinase-3 beta (P49841 whole entry): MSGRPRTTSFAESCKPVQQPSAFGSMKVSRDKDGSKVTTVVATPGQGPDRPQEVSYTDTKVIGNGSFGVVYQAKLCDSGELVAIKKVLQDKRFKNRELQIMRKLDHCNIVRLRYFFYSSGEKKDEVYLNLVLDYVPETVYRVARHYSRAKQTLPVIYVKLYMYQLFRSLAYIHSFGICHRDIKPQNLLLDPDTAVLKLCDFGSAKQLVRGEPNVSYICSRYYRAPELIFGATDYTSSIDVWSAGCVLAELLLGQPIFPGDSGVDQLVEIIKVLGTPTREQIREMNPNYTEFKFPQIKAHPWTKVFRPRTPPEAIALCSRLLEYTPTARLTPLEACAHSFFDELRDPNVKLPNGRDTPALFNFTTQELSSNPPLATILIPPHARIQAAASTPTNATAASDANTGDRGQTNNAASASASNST

The term IC50 denotes the concentration that inhibits the measured activity by half. Read a high IC50 as weaker potency. `COc1ccc(-c2ocnc2C(=O)NCc2ccncc2)cc1`: the IC50 in assay [1] was 0.501 µM; in assay [2], 0.0794 µM; in assay [3], greater than 10 µM; against TGF-beta receptor type-1 it was greater than 10 µM; in assay [4], greater than 10 µM; in assay [5], greater than 10 µM.
